Here are results for 7 molecules from patent US11033545B2, “Negative allosteric modulators of MGLUR5 for use in the treatment of mature brain damages” (Sinntaxis AB, priority 2016, dated 2021).

Test [1] concerns male C57/BL6 mice. As to the kind of experiment: Paw placement test after photothrombotic stroke in the mouse. Format: in vivo.
For a further test, the system named is male Sprague Dawley rats. The test is described as follows: Paw placement test after photothrombotic stroke in the rat. Type of test: in vivo. As for the experimental part:
Animals. All experiments were carried out with the approval of the Malmö-Lund animal review board and according to the ARRIVE guidelines. Animals were housed under reverse light conditions, with the testing performed during the dark period when the rats are active. The experiments were carried out on male Sprague Dawley rats (11 weeks of age, Charles River, Scanbur A/S Karlslunde, Denmark). The studies were subjected to randomization and carried out in a blinded fashion to the investigators who performed the surgeries and behavioral assessment.
Administration of compound. The compound was injected as a bolus dose of 1 ml/kg into the lower quadrant of the abdomen.
(§1) Experimental stroke. The animals were anesthetized by isoflurane (approximately 2% in 02 under spontaneous ventilation) and placed into stereotaxic frame. Temperature was monitored during surgery using a rectal temperature probe and animals were kept at 37.0-37.5±0.2° C. by means of a heating pad with feedback control. A sagittal skin incision was made and subcutaneous connective tissue was removed and the skull was dried. Thereafter, the photosensitizer dye Rose Bengal (0.5 mL at 10 mg/mL) was infused in the tail vein. Two minutes after injection, the skull was illuminated with cold light (Schott, KL 1500 LCD) on an area of 8 to 4.5 mm for 15 min (from +4 to −4 mm antero-posterior and from 0.5 to 5 mm on the left from bregma). Thereafter the tail and the scalp incisions were sutured and the rats transferred to their home cage. The functional deficit was assessed 2 h after the onset of the stroke using the limb placement test and only the animals having a score 0, for both fore- and hindlimb contralateral to the brain damaged hemisphere were used for the study.
Test of neurological function. The paw placement test. The cortical damage inflicted by the phothrombosis, causes a deficit due to neuronal loss in the sensori-motor area and depression of functions in neuronal networks in the vicinity of the lesion. […] This test provides information on the tactile/proprioceptive response to limb stimulation. Animals were placed with all 4 paws on the table top, and the paws to be tested along the edge. The rat was moved over the edge so the paws to be tested loose contact with the table surface. The ability of the animals to place the limb back onto the table surface when the rat was moved towards the edge was evaluated. Importantly, the head was held at 45° angle, so that visual and whisker/snout stimulation was prevented. A prompt placement of the limb onto the table was scored as 1. Incomplete placing of the limb was scored as 0.5, and complete extension of the limb and paw was scored as 0. In order to obtain groups with a similar functional deficit prior to treatment of the animals with drugs or vehicle, selective sorting was performed on day 2 after experimental stroke, a time point of recovery when the infarct development had subsided.
(§2) Administration of the compounds. The compounds were administrated orally (p.o.) by catheters placed in the stomach. The amount of solutions were 0.2 ml/rat and 0.1 ml/mice.
(§3) Induction of stroke was as made as in Example 1 for rats and as in Example 2 in mice. Assessment of neurological function was performed as in Example 1 for rats and as in Example 2 for mice. The animals were perfused and immunostained as in Example 1, and the infarct size was assessed as in Example 1.
Induction of stroke, assessment of neurological function, perfusion of animals, immunostaining and assessment of infarct size were made as in Example 1.

In test [2] the test system is male C57/BL6 mice. As to the kind of experiment: Paw placement test after photothrombotic stroke in the mouse. Type of test: in vivo. Particulars: for paw function: continued for 5 days, FIG. 3C. The protocol:
Animals. All experiments were carried out with the approval of the Malmo-Lund animal review board and according to the ARRIVE guidelines. The experiments were carried out on male C57/BL6 mice (8 weeks of age, Charles River Scanbur A/S Karlslunde, Denmark). Studies were subjected to randomization and carried out in a blinded fashion to the investigators who performed the surgeries and behavioral assessment.
Materials were as in Example 1 and the administration of the drug was made as in Example 1. Also the positive allosteric modulator (PAM) for the mGlur5 receptor was SIN006 (N-Cyclobutyl-6-[2-(3-fluorophenyl)ethynyl]-3-pyridinecarboxamide hydrochloride; VU0360172).
Induction of stroke in the mouse. Mice were subjected to unilateral photothrombotic (PT) cortical infarct in the left sensori-motor cortex. During surgery, the body temperature of the animals was kept at 37° C. using a self-regulating heating pad. Animals were anesthetized using 1.5-2.5% isoflurane (Sigma) in 100% 02. The skin above the skull was incised; a fiber optic bundle with a 2.5 mm aperture diameter was connected to a cold light source (CL 1500 ECO, Zeiss, Germany) and adjusted to the stereotaxic coordinates of the sensori-motor cortex, 0.5 mm anterior to bregma and 1.5 mm lateral to midline. One intraperitoneal (i.p.) injection of 0.25 ml Rose Bengal (10 mg/ml in 0.9% saline; Sigma-Aldrich, Germany) was given 5 min before the light was turned on for 20 minutes. Care was taken not to exceed 38° C. at the skull surface, underneath the fiber optic bundle. Post surgery, animals were allowed to awake from anesthesia while on a heating pad and returned to the cages with free access to food pellets and water.
Enriched housing. It is well known that housing of rodents in an enriched environment stimulates the various sensori-motor systems of the brain enhancing recovery after experimental stroke. Enriched housing was accomplished by the following procedure. After selective sorting at day 2 after stroke, mice were randomly distributed into standard (STD, 17 cm×16 cm×34.5 cm) or enriched cages (EE, 30 cm×27 cm×43 cm). Multilevel-enriched cages were equipped with various colored objects such as plastic tunnels, small houses, slides and rodent running wheels; the disposition of the objects was changed every second day. Mice were housed in either standard (2 animals/cage) or enriched cages (6-8 animals/cage) for 12 days. Animals in standard cages were handled similarly except for the housing condition.
Paw placement test. The mouse was held along its rostro-caudal extension on the edge of a bench and both the unilateral front and hind paws were gently pushed along it. The placement of each paw was recorded when the mouse was moved towards the edge. Sensori-motor dysfunction was assessed by using a score of 1, 0.5, and 0: (1)—the paw is immediately placed on the table surface; (0.5)—the limb is extended, but with some movements and attempts to place the paw on the surface of the table; (0)—the paw is totally immobilized, hanging down, with no movement. In order to obtain groups with a similar functional deficit prior to treatment of the animals with drugs or vehicle, selective sorting was performed on day 2 after experimental stroke, a time point of recovery when the infarct development had subsided.
as §2, §3

Another test deals with mGluR5 KO rats. The test is described as follows: Paw placement test after stroke in mGluR5 KO rats. Particulars: SIN013 treatment, FIG. 3D. Type of test: in vivo, rat. The protocol: as §1, with “Two minutes after injection, the skull was illuminated with cold light (Schott, KL 1500 LCD) on an area of 8 to 4.5 mm for 15 min (from +4 to −4 mm antero-posterior and from 0.5 to 5 mm on the left from bregma). Thereafter the tail and the scalp incisions were sutured and the rats transferred to their home cage.” left out
Test of neurological function. […] The ability of the animals to place the limb back onto the table surface when the rat was moved towards the edge was evaluated. […] A prompt placement of the limb onto the table was scored as 1. Incomplete placing of the limb was scored as 0.5, and complete extension of the limb and paw was scored as 0. […]
Induction of stroke was as made as in Example 1 for rats and as in Example 2 in mice. […] The animals were perfused and immunostained as in Example 1, and the infarct size was assessed as in Example 1.

For `Cl.O=C(NC1CCC1)c1ccc(C#Cc2cccc(F)c2)nc1` [SIN006, N-Cyclobutyl-6-[2-(3-fluorophenyl)ethynyl]-3-pyridinecarboxamide hydrochloride], the “effect on enhanced recovery of function by enriched environment” value in the test on male C57/BL6 mice [1] (SIN006 30 mg/kg p.o. concomitant with 5 days enriched housing after stroke, FIG. 2E) is given as “completely blocked”. The “paw placement score after 5 days of treatment” value with male C57/BL6 mice [1] (SIN006 30 mg/kg p.o. daily, 1 hour prior to SIN007 5 mg/kg i.p., starting two days after stroke, FIG. 2D) is “did not recover function”.

For `Fc1ccc2nc(CCC#Cc3ccccn3)cn2c1` [SIN008, 6-Fluoro-2-[4-(pyridin-2-yl)-3-butynyl]imidazo[1,2-a]pyridine], the “neurological function (paw placement)” value in the test with male Sprague Dawley rats (rat, 30 mg/kg p.o. for 5 days, started 2 days after stroke, vs vehicle, FIG. 3A) is “significantly improved neurological function”.

Regarding `CN1CC(=O)N=C1NC(=O)Nc1cccc(Cl)c1` [SIN010, 1-(3-chlorophenyl)-3-(3-methyl-5-oxo-4H-imidazol-2-yl)urea], in the test with male Sprague Dawley rats (rat, 10 mg/kg p.o. daily for 5 days or 12 days, initiated 2 days after stroke, FIG. 4A), the recovery of function entry was “improves recovery function”. In addition, the “improvement of function, time dependence” value in the test on male Sprague Dawley rats (rat, 10 mg/kg p.o. daily for 12 days, initiated 2 days after stroke, vs vehicle, FIG. 4A) was “significant after 12 days of treatment”. The “recovery of function, combined with enriched housing” value in the test with male C57/BL6 mice [2] (mice, daily SIN010 plus enriched housing from 2 days after stroke, vs Vh, EE alone or SIN010 alone, FIG. 4B) is given as “further improves recovery”.

Regarding `Cc1nc(C#Cc2ccnc(Cl)c2)c(C)n1-c1ccc(OC(F)(F)F)cc1` [SIN013, 2-chloro-4-[2-[2,5-dimethyl-1-[4-(trifluoromethoxy)phenyl]imidazol-4-yl]ethynyl]pyridine], the paw placement function entry in the test on male Sprague Dawley rats (wild type rat, 2 mg/kg/day p.o. for 5 days, initiated 2 days after stroke, vs vehicle, FIG. 3D) was “significantly improved paw placement function”. Moreover, the paw function entry is on record as “enhancement of function, which was significant” in the test with male C57/BL6 mice [2] (mouse, 2 mg/kg daily, started 2 days after stroke, p<0.05) and “enhancement of function” in the test on male C57/BL6 mice [2] (mouse, 2 mg/kg every 48 h, started 2 days after stroke). Moreover, in the test on mGluR5 KO rats, the “recovery of paw placement function” value is listed as “recovery stimulated by SIN013 treatment was not seen”.

As for `Cc1nc(C#Cc2ccnc(Cl)c2)c(C)n1-c1ccc(F)cc1` [SIN014], the functional recovery entry in the test on male C57/BL6 mice [2] (mouse, 10 mg/kg p.o. for 5 days (higher dose; lower dose 5 mg/kg p.o.), FIG. 3E) is reported as “improved functional recovery at the higher dose”.

As to `COC(=O)N1CC[C@@H]2[C@H]1CCC[C@@]2(O)C#Cc1cccc(C)c1` [SIN 011, (3aR,4S,7aR)-Octahydro-4-hydroxy-4 [2-(3-methylphenyl)ethynyl]-1H-indole-1-carboxylic acid methyl ester], the paw placement function entry with male C57/BL6 mice [2] (mouse, 30 mg/kg p.o. daily for 5 days, started 2 days after stroke, vs vehicle, p<0.01, FIG. 3B) is recorded as “significant recovery of paw function”.

For `N#Cc1cc(F)cc(-c2nc(-c3ccc(F)cn3)no2)c1` [SIN 015, 3-fluoro-5-(3-(5-fluoropyridin-2-yl)-1,2,4-oxadiazol5-yl)benzonitrile], the recovery of function entry with male Sprague Dawley rats (rat, 3 mg/kg for 5 days starting 2 days after stroke, FIG. 4C) was “improved recovery of function”.
